The term pIC50 denotes the IC50 on a negative log10 scale, so that one unit is a factor of ten.

In the assay the target is T1, catalytic domain of human collagenase-3 (MMP-13) (Homo sapiens, UniProt P45452).
T1 construct: Determining the enzymic activity of the catalytic domain of human collagenase-3 (MMP-13); purchased INVITEK, Berlin 30 100 803
The assay is described as follows: Enzymic activity of the catalytic domain of human collagenase-3 (MMP-13), fluorogenic substrate. It is filed as biochemical. The following applies: activated with APMA, pH 7.5, read-out: IC50 MMP13. The procedure:
Determining the enzymic activity of the catalytic domain of human collagenase-3 (MMP-13).
Activation of the proenzyme:
2 parts by volume of proenzyme are incubated with 1 part by volume of APMA solution at 37° C. for 1.5 hours. The APMA solution is prepared from a 10 mmol/l solution of p-aminophenylmercuric acetate in 0.1 mmol/l NaOH by diluting it with 3 parts by volume of Tris/HCl buffer, pH 7.5 (see below). The pH is adjusted to between 7.0 and 7.5 by adding 1 mmol/l HCl.
In order to measure the enzyme activity, 10 μl of enzyme solution are incubated for 15 minutes with 10 μl of a buffered 3% (v/v) solution of dimethyl sulfoxide (reaction 1). In order to measure the enzyme inhibitor activity, 10 μl of enzyme solution are incubated with 10 μl of a buffered 3% (v/v) solution of dimethyl sulfoxide which contains the enzyme inhibitor (reaction 2).
The enzyme activity is presented as increase in extinction/minute.
The buffer solution contains 0.05% Brij (Sigma, Deisenhofen, Germany) and also 0.1 mol of Tris/HCl/l, 0.1 mol of NaCl/1 and 0.01 mol of CaCl2/l (pH=7.5).
The substrate solution contains 0.75 mmol of the fluorogenic substrate (7-methoxycoumarin-4-yl)acetyl-Pro-Leu-Gly-Leu-3-(2′,4′-dinitrophenyl)-L-2,3-diaminopropionyl-Ala-Arg-NH2/I(Bachem, Heidelberg, Germany).

Each structure is given as a SMILES string. pIC50: −log10 of the molar value.

For `Cc1ccc(CNC(=O)c2cc(C(=O)NCc3ccc(C)cc3)ncn2)cc1` [Example 5], the pIC50 was 5.70.

For the compound `O=C(NCc1ccc(F)c(C(F)(F)F)c1)c1cc(C(=O)NCc2ccc(F)c(C(F)(F)F)c2)ncn1` [Example 13], the pIC50 was 6.68.

As to `O=C(NCc1cccc(F)c1)c1cc(C(=O)NCc2cccc(F)c2)ncn1` [Example 14], the pIC50 is 6.70.

As to `O=C(NCc1ccccc1)c1ccnc(C(=O)NCc2ccccc2)c1` [Example 4], the pIC50 was 5.47.

As to `O=C(NCc1ccc(F)cc1)c1cc(C(=O)NCc2ccc(F)cc2)ncn1` [Example 15], the pIC50 was 6.72.

As for `O=C(NCc1cc(F)cc(F)c1)c1cc(C(=O)NCc2cc(F)cc(F)c2)ncn1` [Example 10], the pIC50 is 6.52.

Turning to `COc1ccc(CNC(=O)c2ccnc(C(=O)NCc3ccc(OC)cc3)c2)cc1` [Example 9], the pIC50 was 6.49.

Consider `O=C(NCc1ccc(F)cc1)c1ccnc(C(=O)NCc2ccc(F)cc2)c1` [Example 7], for which the pIC50 is 6.21.

`O=C(NCc1ccc(F)c(Cl)c1)c1cc(C(=O)NCc2ccc(F)c(Cl)c2)ncn1` [Example 2, Pyrimidine-4,6-dicarboxylic acid bis(3-chloro-4-fluorobenzylamide)]: the pIC50 was 7.64.

Regarding `COc1cccc(CNC(=O)c2cc(C(=O)NCc3cccc(OC)c3)ncn2)c1` [Example 21], the pIC50 was 8.00.

`COc1ccc(CNC(=O)c2cc(C(=O)NCc3ccc(OC)cc3)ncn2)cc1` [Example 17]: the pIC50 is 7.10.

As to `O=C(NCc1cccc(Cl)c1)c1ccnc(C(=O)NCc2cccc(Cl)c2)c1` [Example 12], the negative logarithm of the IC50 (pIC50) is 6.59.

On to `O=C(NCc1ccc(F)c(F)c1)c1cc(C(=O)NCc2ccc(F)c(F)c2)ncn1` [Example 16], for which the pIC50 was 6.98.

In the case of `Cc1cccc(CNC(=O)c2ccnc(C(=O)NCc3cccc(C)c3)c2)c1` [Example 8], the pIC50 was 6.40.

As to `O=C(NCc1ccc2c(c1)CCO2)c1cc(C(=O)NCc2ccc3c(c2)CCO3)ncn1` [Example 22], the pIC50 was 8.05.

As for `O=C(NCc1ccc(Cl)cc1)c1cc(C(=O)NCc2ccc(Cl)cc2)ncn1` [Example 3], the pIC50 is 5.25.

As for `O=C(NCc1cccc(OC(F)(F)F)c1)c1cc(C(=O)NCc2cccc(OC(F)(F)F)c2)ncn1` [Example 6], the pIC50 is 6.15.

For `O=C(NCc1cccc(C(F)(F)F)c1)c1cc(C(=O)NCc2cccc(C(F)(F)F)c2)ncn1` [Example 11], the pIC50 was 6.52.

For the compound `O=C(NCc1ccc2c(c1)OCO2)c1cc(C(=O)NCc2ccc3c(c2)OCO3)ncn1` [Example 20], the pIC50 was 7.85.

Regarding `O=C(NCc1cccc(Cl)c1)c1cc(C(=O)NCc2cccc(Cl)c2)ncn1` [Example 19], the pIC50 was 7.24.

The record behind these values is patent US6933298B2, “Pyridine-2,4-dicarboxylic acid diamides and pyrimidine-4,6-dicarboxylic acid diamides and the use thereof for selectively inhibiting collagenases” (Aventis Pharma Deutschland GmbH, priority 2001, dated 2005).
